“And” between values parts separate entries of the source, which are not always exact repeats. Equal entries are not always repeated.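 In this assay, cells in 96-well plates receive the compound at five concentrations for 48 hours. Endpoints are linearly interpolated between the surrounding concentrations. GI50: concentration for 50% inhibition of growth. The concentration for full growth arrest is given as TGI.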
What was measured:
Experiment in all cases: growth of human tumour cells (NCI), 48 h
[1] = tested on: RPMI-8226 leukemia
[2] = tested on: RXF 393 renal
[3] = tested on: MDA-MB-435
[4] = tested on: OVCAR-5 ovarian
[5] = tested on: DU-145 prostate
[6] = tested on: TK-10 renal
[7] = tested on: IGROV1 ovarian
[8] = tested on: SNB-75 CNS
[9] = tested on: SK-MEL-2 melanoma
[10] = tested on: EKVX NSCLC

SMILES	GI50 [1]	TGI [1]	GI50 [2]	TGI [2]	GI50 [3]	TGI [3]	GI50 [4]	TGI [4]	GI50 [5]	TGI [5]	GI50 [6]	TGI [6]	GI50 [7]	TGI [7] [µM]	GI50 [8]	TGI [8]	GI50 [9]	TGI [9]	GI50 [10]	TGI [10]
CCOC(=O)Cc1csc(NC(=O)COC(=O)c2ccc(OC)cc2)n1	12.5 µM	33.5 µM	> 70.8 µM	> 100 µM	> 100 µM	> 100 µM	> 51.3 µM	> 83.8 µM	57.2 µM	> 100 µM	> 100 µM	> 100 µM	2.99 µM	8.77	28.3 µM	> 56.6 µM	> 100 µM	> 100 µM	52.9 µM	> 100 µM
O=C(Nc1cccc(C(F)(F)F)c1)c1cc(Br)cc(Br)c1O		5.86 µM		9.12 µM		> 10 µM		> 10 µM		> 10 µM		7.38 µM		> 10		> 10 µM		5.07 µM		8.06 µM
CO[C@H](C(=O)O)[C@@H]1Cc2cc3cc(OC4CC(OC5CC(O)C(O)C(C)O5)C(O)C(C)O4)c(C)c(O)c3c(O)c2C(=O)[C@H]1OC1CC(OC2CC(OC3CC(C)(O)C(O)C(C)O3)C(O)C(C)O2)C(O)C(C)O1 (stereo not given in full)	0.16 µM	2.23 µM	0.101 µM	0.436 µM	0.309 µM	1.61 µM	0.375 µM	> 32.5 µM	0.364 µM	> 32.5 µM	1.45 µM	> 32.5 µM	0.231 µM	> 32.5	0.128 µM	0.741 µM	0.335 µM	1.56 µM	0.57 µM	> 32.5 µM
CCCCOc1ccc(/C=N/Nc2cc(C)nc3ccc(Cl)cc23)cc1	1.92 µM	4.53 µM	1.41 µM	2.74 µM	1.73 µM	3.17 µM	1.82 µM	3.24 µM	1.82 µM	3.71 µM	1.87 µM	3.28 µM	1.93 µM	3.63	1.75 µM	3.33 µM	1.85 µM	3.43 µM	1.63 µM	3.01 µM
O=C(O)C(=O)CBr	> 48.9 µM and 26.8 µM	> 73.5 µM and 55.6 µM	64 µM and 17 µM	> 100 µM and 31 µM	> 70.4 µM and 18 µM	> 100 µM and 32.7 µM	> 44.2 µM and 18.4 µM	> 64.8 µM and 37.5 µM	> 61.9 µM and 17 µM	> 100 µM and 31.4 µM	> 39.7 µM and 11.4 µM	> 55.3 µM and 24.6 µM	33.5 µM and 62.1 µM	> 100	> 100 µM and 25.2 µM	> 100 µM and 60.3 µM	> 100 µM and 20 µM	> 100 µM and 37.5 µM	> 100 µM and 18.9 µM	> 100 µM and 36.7 µM
CN(C)CCNc1nc2ccccc2c2c(=O)c3ccccc3sc12	2.42 µM	6.35 µM	1.51 µM	4.11 µM	1.83 µM	3.42 µM	2.25 µM	5.14 µM	2.31 µM	6.83 µM	2.52 µM	6.15 µM	1.81 µM	4.53	1.74 µM	6.94 µM	1.78 µM	3.41 µM	1.66 µM	4.98 µM
COc1ccc(/C=N/N=C(\[O-])c2ccncc2)cc1F.COc1ccc(/C=N\N=C(/[O-])c2ccncc2)cc1F.[Cu+2]	40.1 µM	> 100 µM	18.9 µM	32.9 µM	62.1 µM	> 100 µM	18.6 µM	32.7 µM	32 µM	> 100 µM	19.9 µM	48 µM	17.6 µM	40.2	14.6 µM	28.2 µM	23 µM	53.2 µM	24.3 µM	76.3 µM
